Broadly, the Ki is a dissociation constant, usually derived from enzyme kinetics or from competition with a known ligand. Higher therefore signals a looser hold on the target.

Test [1] concerns the target T1, D(2) dopamine receptor (Homo sapiens, UniProt P14416). The test can be described thus: Binding Affinity was tested on relative proportion of High Affinity Site of Dopamine receptor D2L.
For test [2], the target named is T1, D(2) dopamine receptor. The test can be described thus: Binding Affinity was tested on relative proportion of High Affinity Site of Dopamine receptor D2S.
In another test the target is T2, D(4) dopamine receptor (Homo sapiens, UniProt P21917).
T2 sequence (P21917 whole entry): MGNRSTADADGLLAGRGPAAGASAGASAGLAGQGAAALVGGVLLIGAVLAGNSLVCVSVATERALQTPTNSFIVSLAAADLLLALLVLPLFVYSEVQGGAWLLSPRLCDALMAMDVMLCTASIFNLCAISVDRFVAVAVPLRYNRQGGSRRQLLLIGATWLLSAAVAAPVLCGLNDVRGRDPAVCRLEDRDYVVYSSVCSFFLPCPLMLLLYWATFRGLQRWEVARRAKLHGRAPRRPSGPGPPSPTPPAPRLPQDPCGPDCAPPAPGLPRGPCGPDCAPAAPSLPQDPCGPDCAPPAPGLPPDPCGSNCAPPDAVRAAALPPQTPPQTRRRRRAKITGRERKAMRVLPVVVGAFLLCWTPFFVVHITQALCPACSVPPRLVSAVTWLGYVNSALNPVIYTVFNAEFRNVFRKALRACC
The test can be described thus: Binding Affinity was tested on relative proportion of High Affinity Site of Dopamine receptor D4.4.

The nature of test [3]: Binding Affinity was tested on relative proportion of High Affinity Site of Dopamine receptor D3.

T1 sequence (P14416 whole entry): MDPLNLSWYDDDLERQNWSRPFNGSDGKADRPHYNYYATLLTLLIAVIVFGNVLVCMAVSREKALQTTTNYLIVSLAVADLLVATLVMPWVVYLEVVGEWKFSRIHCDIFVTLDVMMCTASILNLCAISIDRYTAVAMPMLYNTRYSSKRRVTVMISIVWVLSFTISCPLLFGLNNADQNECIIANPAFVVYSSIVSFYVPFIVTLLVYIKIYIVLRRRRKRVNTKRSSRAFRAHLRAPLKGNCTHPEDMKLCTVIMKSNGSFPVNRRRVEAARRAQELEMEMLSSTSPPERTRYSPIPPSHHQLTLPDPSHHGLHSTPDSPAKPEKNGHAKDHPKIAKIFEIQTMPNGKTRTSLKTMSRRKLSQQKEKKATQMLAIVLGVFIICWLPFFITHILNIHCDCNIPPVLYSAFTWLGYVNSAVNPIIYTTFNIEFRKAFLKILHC

With `CCCN(CCC)C1CC=C(C#C[Si](C)(C)C)CC1` (configuration not stated) [Dipropyl-(4-trimethylsilanylethynyl-cyclohex-3-enyl)-amine], the RH on D(2) dopamine receptor [1] amounted to 16%; on D(2) dopamine receptor [2] it was 17%; on D(4) dopamine receptor, 54%. The same molecule showed an inhibitory constant (Ki) in test [3] of 0.023 µM.
Regarding `C#CC1=CCC(N(CCC)CCC)CC1` (configuration not stated) [(4-Ethynyl-cyclohex-3-enyl)-dipropyl-amine], the RH at D(2) dopamine receptor [1] was found to be 38%; at D(2) dopamine receptor [2] it was 34%; at D(4) dopamine receptor, 38%.

For the origin of these results see BindingDB's records for doi:10.1021/jm991098z (Friedrich-Alexander University, 2000).
